According to BigSolDB 2.1:

CNc1nc(C)nc(OC)n1
solubility (mole fraction)
Conditions	278.15 K	283.15 K	288.15 K	293.15 K	298.15 K	303.15 K	308.15 K	313.15 K	318.15 K	323.15 K
in DMF	0.199	0.221	0.245	0.269	0.298	0.324	0.357	0.386	0.416	0.456
in ethanol	0.0496	0.057	0.0655	0.0737	0.0818	0.0914	0.101	0.111	0.123	0.136
in ethylene glycol	0.0208	0.0236	0.0273	0.0309	0.0349	0.039	0.0437	0.0483	0.0534	0.0597
in methanol	0.0666	0.0766	0.0874	0.0983	0.11	0.123	0.138	0.152	0.168	0.185
in water	2.58e-06	3.05e-06	3.53e-06	4.12e-06	4.73e-06	5.33e-06	5.99e-06	6.71e-06	7.57e-06	8.49e-06
